According to paper PMC12816392, “Salmonella relies on siderophore exploitation at low pH” (microLife, 2026):

Biological target: FoxA (Salmonella enterica, UniProt E1W8M5)
Test: […]-DFOE radioligand binding to whole Salmonella cells expressing FoxA, at […]-4 °C with CCCP, filtration and scintillation counting; pH […] and […]
Format: cell-based

Chain of FoxA (E1W8M5 31-702): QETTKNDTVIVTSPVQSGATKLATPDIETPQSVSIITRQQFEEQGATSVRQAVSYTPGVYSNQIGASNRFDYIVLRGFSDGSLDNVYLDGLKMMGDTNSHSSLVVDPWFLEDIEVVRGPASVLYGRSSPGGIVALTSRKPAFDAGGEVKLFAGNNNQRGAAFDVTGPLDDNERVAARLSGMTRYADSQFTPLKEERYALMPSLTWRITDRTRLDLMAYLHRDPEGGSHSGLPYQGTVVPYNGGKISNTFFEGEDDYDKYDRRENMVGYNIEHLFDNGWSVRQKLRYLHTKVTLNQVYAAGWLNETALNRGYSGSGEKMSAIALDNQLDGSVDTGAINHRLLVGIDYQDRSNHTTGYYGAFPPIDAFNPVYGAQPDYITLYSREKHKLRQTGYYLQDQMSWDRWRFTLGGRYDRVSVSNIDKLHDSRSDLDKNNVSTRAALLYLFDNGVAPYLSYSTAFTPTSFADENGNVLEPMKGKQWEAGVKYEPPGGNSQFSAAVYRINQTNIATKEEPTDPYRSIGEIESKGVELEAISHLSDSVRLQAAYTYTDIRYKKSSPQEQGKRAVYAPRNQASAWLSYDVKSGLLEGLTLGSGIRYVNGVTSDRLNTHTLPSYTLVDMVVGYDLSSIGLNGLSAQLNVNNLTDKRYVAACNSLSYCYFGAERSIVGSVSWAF

O=C1CCC(=O)N(O)CCCCCNC(=O)CCC(=O)N(O)CCCCCNC(=O)CCC(=O)N(O)CCCCCN1 [DFOE, ferrioxamine E] was tested, and the Kd was roughly 3.2 nM.
